Laboratory results published in ChEMBL document CHEMBL1135996, “Synthesis and biological evaluation of novel macrocyclic ligands with pendent donor groups as potential yttrium chelators for radioimmunotherapy with improved complex formation kinetics” (J Med Chem, 2002).

How the values were obtained:
Format in all cases: ADME, organism-based
Conditions in all cases: in vivo
[1] = species: Mus musculus; experiment: Percent of radioactivity that accumulated in kidney of mice at 24 h
[2] = species: Mus musculus; experiment: Percent of blood clearance in bone of mice at 24 hr
[3] = species: Mus musculus; experiment: Percent of blood clearance in bone of mice at 0.5 h

- ID/g [1]: 0.54%
- ID/g [2]: 0.05%
- ID/g [3]: 1.47%
Substance: 1,4,7,10tetraaza-Cyclododecane-1,4,7,10-tetracarboxylic acid with yttrium
